Assay results taken from US11813338B2, “Diagnosing and treating cancer” (The Trustees of the University of Pennsylvania, priority 2013, dated 2023).

Tests used:
[1] = target: T1, ChoK (Homo sapiens, UniProt P35790); assay: Choline competition: phosphorylation of 14C-labeled choline with varying choline concentrations; type: cell-based; conditions: MDA-MB-231 cells, 2 hr, 10 μM
T1 construct: endogenous in cells; host or cells: MDA-MB-231 (and MCF10a) cells
Experimental: (§1) MDA-MB-231 cells were treated for 2 hr with or without 10 μM JAS239 in the presence of varying concentrations of choline. Autoradiography was used to estimate phosphorylation of ^14C-labeled choline. Fluorimetry was performed under the same cellular conditions for estimation of probe uptake (Excitation 640 nm, Emission 770 nm). These values represent a ratio of JAS239 treated vs. untreated cells, and are reported relative to control.

[2] = target: T2, human ChoKα (Homo sapiens, UniProt P35790); assay: Immunofluorescence study of ChoKα binding specificity; type: cell-based; conditions: fixed permeabilized MDA-MB-231 cells, 2 μM, added before or after ChoKα antibody
T2 construct: endogenous in cells; host or cells: MDA-MB-231 cells (fixed, permeabilized)
Experimental: (§2) Immunofluorescence studies confirmed the specificity of ChoKα binding (FIG. 7). […] Cells were treated with a Rabbit polyclonal antibody to human ChoKα followed by a Texas Red Goat Anti-Rabbit IgG secondary antibody. Confocal images were taken using a Leica DMI6000 B microscope with channels for Texas Red (Ex: 594 nm, Em: 600-630 nm), and JAS239 (Ex: 633 nm, Em: 728-800 nm).

[3] = tested on: MDA-MB-231 cells; assay: Fluorimetry of probe uptake in MDA-MB-231 cells; type: cell-based, human
Experimental: MDA-MB-231 cells were incubated with JAS239 and the fluorescence measured (Excitation 640 nm, Emission 770 nm).
as §1

[4] = tested on: MDA-MB-231 cells; assay: Fluorescent confocal microscopy, subcellular localization; type: cell-based, human; conditions: 2 μM
Experimental: as §2

[5] = tested on: ChoK; assay: ChoK activity by 14C-labeled choline uptake, TLC/autoradiography, in MDA-MB-231 cells; type: cell-based, human; conditions: for ChoK inhibition (PC production as % control): MDA-MB-231 cells, increasing concentrations, 14 h following 14C-choline addition; for IC50 of ChoK inhibition: relative to positive control MN58b
Experimental: ChoK activity was assessed in triple-negative MDA-MB-231 breast cancer cells and in non-transformed MCF10a breast epithelial cells using ^14C-labeled choline uptake.
MDA-MB-231 cells and non-malignant MCF-10a cells were incubated for 14 hr with JAS239 and analyzed by TLC/autoradiography after ^14C-choline labeling.
MDA-MB-231 cells were incubated with increasing concentrations of JAS239 or JAS240. 14 h following ^14C-choline addition, cells were extracted for TLC/autoradiography analysis. […] MN58b was used as positive control.

[6] = tested on: MDA-MB-231 tumors; assay: In vivo fluorescence distribution in mice bearing MDA-MB-231 tumors; set-up: species or system athymic nude mice

T1 sequence (P35790 whole entry): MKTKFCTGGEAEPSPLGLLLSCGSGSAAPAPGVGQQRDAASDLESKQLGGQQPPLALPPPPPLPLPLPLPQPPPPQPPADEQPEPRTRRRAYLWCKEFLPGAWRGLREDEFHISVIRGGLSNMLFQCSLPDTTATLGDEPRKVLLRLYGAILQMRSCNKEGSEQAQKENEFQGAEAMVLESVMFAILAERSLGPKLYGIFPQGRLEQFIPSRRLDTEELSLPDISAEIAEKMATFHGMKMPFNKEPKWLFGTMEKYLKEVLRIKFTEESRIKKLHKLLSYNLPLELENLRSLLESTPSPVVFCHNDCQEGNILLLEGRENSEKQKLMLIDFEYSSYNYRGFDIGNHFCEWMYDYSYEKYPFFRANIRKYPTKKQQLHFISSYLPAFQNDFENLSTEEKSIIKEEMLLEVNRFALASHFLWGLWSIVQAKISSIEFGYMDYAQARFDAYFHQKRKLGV
T2 sequence (P35790 whole entry): as above

| Structure (SMILES) | Mode of ChoK inhibition [1] | Specificity of binding to ChoKα [2] | Time by which cell uptake is detectable [3] | Cell uptake versus exogenous choline concentration ([3]; MDA-MB-231 cells, 10 μM, 2 hr) | Cell uptake versus probe concentration ([3]; MDA-MB-231 cells, Excitation 640 nm, Emission 770 nm) | Subcellular localization [4] | Time by which ChoK inhibition is present [5] | Sensitivity of MDA-MB-231 cells versus non-transformed MCF10a cells ([5]; 14 hr incubation, 14C-choline labeling) | ChoK inhibition (PC production as % control) [5] | IC50 of ChoK inhibition [5] | Tissue accumulation of probe fluorescence ([6]; 20 nmol i.v., 15 min post-injection, Ex. 745 nm, Em 800 nm) | Fluorescence in background muscle tissue ([6]; excised tissue, dual CCD fluorescence camera) |
| --- | --- | --- | --- | --- | --- | --- | --- | --- | --- | --- | --- | --- |
| CC1(C)C(/C=C/C=C/C=C/C=C2\N(CCO)c3ccccc3C2(C)C)=[N+](CCO)c2ccccc21 [JAS239, 1-(2-hydroxyethyl)-2-((1E,3E,5E)-7-((Z/E)-1-(2-hydroxyethyl)-3,3-dimethylindolin-2-ylidene)hepta-1,3,5-trien-1-yl)-3,3-dimethyl-3H-indol-1-ium chloride] | competitive inhibitor of ChoK | specific to ChoKα | ≤ 15 min | independent of exogenous choline concentration | linearly proportional to concentration | co-localizes with the cytosolic expression of ChoK | ≤ 60 min | greater sensitivity | ChoK inhibition at physiologically-relevant concentrations | comparable to MN58b | accumulate in the kidneys and tumor | no fluorescence detectable |
| CN1\C(=C/C=C/C=C/C=C/C2=[N+](C)c3ccccc3C2(C)C)C(C)(C)c2ccccc21.[I-] [JAS240, 1,3,3-trimethyl-2-((1E,3E,5E)-7-((Z/E)-1,3,3-trimethylindolin-2-ylidene)hepta-1,3,5-trien-1-yl)-3H-indol-1-ium iodide] | – | – | – | – | – | localized to the cytoplasm | – | – | ChoK inhibition at physiologically-relevant concentrations | comparable to MN58b | – | – |
